These results are taken from patent publication US8946327B2, “Method for producing synthetic amylospheroid” (Tao Health Life Pharma., Ltd., priority 2011, dated 2015).

The data set deals with primary cultured neurons derived from hippocampus of mature rat. Description: Cytotoxicity test (Cell Death Detection ELISA, apoptosis). The format is cell-based. The method, then: The formation of ASPD was confirmed by the following cytotoxicity test. A certain amount of ASPD was administered overnight to primary cultured neurons (more than 19 days after starting culture) derived from hippocampus of mature rat, and the neurotoxicity was measured in accordance with protocols using Cell Death Detection ELISA manufactured by Roche Diagnostics. This is an ELISA kit for quantitative detection of histone-complexed DNA fragmentation in the cells caused by apoptosis.

As for `CCCCC(CC)COC(=O)c1ccccc1C(=O)OCC(CC)CCCC` (centres unmarked) [DEHP, bis(2-ethylhexyl)phthalate], for the setting “solution containing the same concentration of DEHP and not containing synthetic ASPD, data not shown”, the “cytotoxicity (neurotoxicity)” value is recorded as “No cytotoxicity”.

Consider “Example 1: synthetic ASPD (amylospheroid) formed from Aβ42 by agitation using 65 mM DEHP/DMSO solution”, for which, where the note is “solution containing synthetic ASPD before purification, 1, 2 and 4 μM in terms of Aβ42, administered overnight, compared with Comparative Example 1 (DEHP−), FIG. 2”, the “cytotoxicity (neurotoxicity)” value was “significant cytotoxicity in a concentration-dependent manner”.
